Test results taken from patent publication US6599944B1, “Ophtalmic compound with extended dwell time on the eye” (Bausch & Lomb Incorporated, priority 1996, dated 2003).

Test system: eye of experimental rabbits
Assay: long-term (5 weeks) eye tolerability test of preserved ophthalmic gel compositions
Format: in vivo, rabbits (Charles River)
Method: Long-term tests were carried out on experimental rabbits (Charles River) with the compositions of Example 1 and 2. In parallel, comparative tests were carried out with a corresponding control group in which the compositions employed were in every respect the same but differed with regard to the preservative. Instead of benzyllauryldimethylammonium chloride, on the one hand benzalkonium chloride was used in the same concentration, and on the other hand, thiomersal (standard concentration) =40 μg/g was used.

[1] = Carbopol gel, benzalkonium chloride in same concentration as Examples 1 and 2, thiomersal 40 μg/g

## C[CH2][Hg][S]c1ccccc1C(=O)[O-].[Na+] [thiomersal]
[1]
  damage to the tissue of the eye at the end of the test: in some cases also damage to the eye
  irritation in the eye at the end of the test: severe irritation
Control groups with other preservative
  rabbits showing severe irritation at the end of the test: seven of eight
